Values of other authors as cited in US20070269473A1, “Microbial Encapsulation” (priority 2004, published 2007).

Conditions: octanol/water; carriers

| Molecule | logP(o/w) |
| --- | --- |
| 1,3,5-trimethyl-Benzene (Mesitylene) | 3.6 |
| COC(=O)c1ccccc1 [Methyl benzoate] | 1.8 |
| Acetophenone (1-phenyl-Ethanone) | 1.7 |
